Measured values as given in patent publication US4798821A, “Antihypertensive therapy for diabetics” (Merck & Co., Inc., priority 1987, dated 1989).

Columns and labels:
Format in all cases: in vivo, rat
[1] = system: spontaneously hypertensive (SH) rats; assay: Systolic blood pressure (tail cuff) in spontaneously hypertensive rats; settings: treated SH rats
Protocol: (§1) In the determination, the following groups of rats were employed, each group consisting of ten rats.
Group 4 Spontaneously hypertensive (SH) rats
Group 5 Spontaneously hypertensive rats treated with cyclopeptide compound
SH rats were commercially available spontaneously hypertensive rats.
(§2) Dosing was initiated with cyclopeptide compound four days after injection of streptozotocin to induce diabetes in the diabetic rats. Dosing was carried out by administering the cyclopeptide compound in the drinking water at a dose of 50 μg/rat/day.
(§3) The rats were housed two to a box and fed standard rat food and water ad libitum. Blood pressure was measured indirectly with a photoelectric system with a tail cuff containing a built in sensor (Harvard Biosciences,Cambridge, MA). The instrument was calibrated on each day of use with a sphygmomanometer. Six to eight recordings were made for each rat.
The blood pressure measurements of treated and untreated spontaneously hypertensive rats compared with normal rats may be seen in FIG. 2.
FIG. 2 is a graph in which the systolic blood pressure of normal, spontaneously hypertensive and treated spontaneously hypertensive rats are plotted against a period of time in days.

diabetic rats = assay: Systolic blood pressure (tail cuff) in streptozotocin-diabetic rats; settings: treated diabetic rats
Protocol: as §1
Group 3 Diabetic rats treated with cyclopeptide compound
Normal rats were commercially available laboratory rats identified as CD rats.
(§4) Diabetic rats were CD rats in which diabetes was induced by the injection of streptozotocin into the femoral vein at a dose of 60 mg/kg. Hyperglycemia was confirmed by measuring glucose levels in blood obtained by orbital bleeding. (A standard medical technique for obtaining blood form the orbital sinus is described in "Laboratory Animal Medicine" edited by J. G. Fox et al., Academic Press, Inc., Orlando, Fla., 1984.)
Dosing was initiated with cyclopeptide compound four days after injection of streptozotocin to induce diabetes in the diabetic rats. […]
as §3
Blood pressure measurements were initated 8 days following injection of streptozotocin (4 days after start of treatment).
FIG. 1 is a graph in which the blood pressures of normal, diabetic and treated diabetic rats are plotted against a period of time in days. (Each point is the mean of 7 to 10 rats±standard deviation.)

[2] = Body weight of treated rats; settings: for Body Weight (after 38 days): mean ± std. dev.
Protocol: as §1, §4, §2, §3
(§5) At the beginning of the experiment, the mean weights of the CD rats were 160 grams and the SH rats were 220 grams. The body weights after 38 days may be seen in Table 1. The serum glucose level, measured after 27 days of treatment also may be seen in Table 1.

[3] = Serum glucose level of treated rats; settings: for Serum Glucose (after 27 days): after 27 days of treatment, mean ± std. dev.
Protocol: as §1, §4, §2, §3, §5

[4] = diabetic rat or spontaneously hypertensive rat

## CC(C)[C@@H]1NC(=O)[C@H](CCCCN)NC(=O)[C@@H](Cc2c[nH]c3ccccc23)NC(=O)[C@H](Cc2ccc(O)cc2)NC(=O)[C@H](C)N(C)C(=O)[C@H](Cc2ccccc2)NC1=O [Compound IA, cyclo-(N-MeAla-Tyr-(D)Trp-Lys-Val-Phe)]
[1]; 10th day of treatment, P=<0.02
  reduction in systolic blood pressure: 11%
[1]; after 10th day, even after increasing dose to 200 μg/rat/day on 40th day
  inhibition of blood pressure after the 10th day: no further inhibition was evident
Diabetic rats; 33rd day of treatment, 100 μg/rat/day from 21st day, P=<0.005
  reduction in blood pressure: 18%
Diabetic rats; 38th day of treatment, 100 μg/rat/day from 21st day, P=<0.001
  reduction in blood pressure: 21%
Diabetic rats; after 17 days of treatment, 50 μg/rat/day in drinking water, P=<0.05
  reduction in blood pressure: 14%
[2]; Diabetic CD rats (streptozotocin) + Compound IA in drinking water, 50 μg/rat/day, doubled to 100 μg/rat/day on 21st day
  Body Weight (after 38 days): 281 ± 63 gms
[2]; SH rats + Compound IA in drinking water
  Body Weight (after 38 days): 285 ± 17 gms
[2]; [4]
  effect on body weight (in words): no significant effect
[3]; Diabetic CD rats (streptozotocin) + Compound IA in drinking water
  Serum Glucose (after 27 days): 352 ± 52 mg %
[3]; SH rats + Compound IA in drinking water, P = <0.05 relative to normal CD
  Serum Glucose (after 27 days): 90 ± 10 mg %
[3]; [4]
  effect on serum glucose level (in words): no significant effect
